Laboratory results from ChEMBL document CHEMBL5465560, “Selectivity Literature for EUbOPEN Chemogenomic Library” (2024).

Columns and labels:
[1] = target: T1, Serine/threonine-protein kinase ULK2 (Homo sapiens) (UniProt Q8IYT8); test: Selectivity interaction (KinomeScan (DiscoverX)) EUB0001049a ULK2; details: at 1 µM
T1 sequence (whole entry): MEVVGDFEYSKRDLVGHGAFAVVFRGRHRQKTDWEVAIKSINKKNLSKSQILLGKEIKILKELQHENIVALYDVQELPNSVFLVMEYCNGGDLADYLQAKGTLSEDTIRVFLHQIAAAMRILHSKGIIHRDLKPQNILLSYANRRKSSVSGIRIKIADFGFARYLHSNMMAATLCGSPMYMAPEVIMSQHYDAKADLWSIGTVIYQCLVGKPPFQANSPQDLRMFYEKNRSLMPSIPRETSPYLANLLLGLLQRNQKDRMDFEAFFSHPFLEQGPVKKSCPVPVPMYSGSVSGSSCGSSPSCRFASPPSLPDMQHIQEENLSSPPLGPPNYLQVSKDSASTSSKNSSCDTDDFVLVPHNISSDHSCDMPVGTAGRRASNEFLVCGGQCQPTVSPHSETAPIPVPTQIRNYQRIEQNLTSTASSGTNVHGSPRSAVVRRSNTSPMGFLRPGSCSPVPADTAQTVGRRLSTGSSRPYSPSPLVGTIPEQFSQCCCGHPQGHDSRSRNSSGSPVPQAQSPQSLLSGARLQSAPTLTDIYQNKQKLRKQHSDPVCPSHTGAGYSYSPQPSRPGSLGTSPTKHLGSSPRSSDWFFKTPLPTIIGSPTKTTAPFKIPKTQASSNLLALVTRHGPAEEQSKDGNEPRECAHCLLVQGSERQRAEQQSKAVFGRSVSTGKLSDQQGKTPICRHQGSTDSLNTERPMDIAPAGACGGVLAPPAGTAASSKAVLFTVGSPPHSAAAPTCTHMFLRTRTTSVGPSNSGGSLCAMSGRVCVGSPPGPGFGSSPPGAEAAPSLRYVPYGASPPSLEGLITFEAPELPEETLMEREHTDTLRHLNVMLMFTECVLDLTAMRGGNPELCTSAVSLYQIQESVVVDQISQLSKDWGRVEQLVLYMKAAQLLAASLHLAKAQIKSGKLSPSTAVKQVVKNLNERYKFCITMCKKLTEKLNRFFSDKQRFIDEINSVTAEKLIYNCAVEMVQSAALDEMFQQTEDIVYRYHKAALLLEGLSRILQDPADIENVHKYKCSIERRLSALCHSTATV

[2] = target: Vascular endothelial growth factor receptor 3 (Homo sapiens, UniProt P35916); test: Selectivity interaction (KinomeScan (DiscoverX)) EUB0001079a FLT4; details: at 1 µM
[3] = tested on: Tyrosine-protein kinase ABL1 (Homo sapiens), P00519 [E255K]; details: at 10 µM
[4] = target: T2, Mitogen-activated protein kinase kinase kinase 6 (Homo sapiens) (UniProt O95382); test: Selectivity interaction (ActivX KiNativ screen (kinase selectivity in THP-1 cell lysates)) EUB0000639a MAP3K6; type: subcellular; details: lysate
T2 sequence (whole entry): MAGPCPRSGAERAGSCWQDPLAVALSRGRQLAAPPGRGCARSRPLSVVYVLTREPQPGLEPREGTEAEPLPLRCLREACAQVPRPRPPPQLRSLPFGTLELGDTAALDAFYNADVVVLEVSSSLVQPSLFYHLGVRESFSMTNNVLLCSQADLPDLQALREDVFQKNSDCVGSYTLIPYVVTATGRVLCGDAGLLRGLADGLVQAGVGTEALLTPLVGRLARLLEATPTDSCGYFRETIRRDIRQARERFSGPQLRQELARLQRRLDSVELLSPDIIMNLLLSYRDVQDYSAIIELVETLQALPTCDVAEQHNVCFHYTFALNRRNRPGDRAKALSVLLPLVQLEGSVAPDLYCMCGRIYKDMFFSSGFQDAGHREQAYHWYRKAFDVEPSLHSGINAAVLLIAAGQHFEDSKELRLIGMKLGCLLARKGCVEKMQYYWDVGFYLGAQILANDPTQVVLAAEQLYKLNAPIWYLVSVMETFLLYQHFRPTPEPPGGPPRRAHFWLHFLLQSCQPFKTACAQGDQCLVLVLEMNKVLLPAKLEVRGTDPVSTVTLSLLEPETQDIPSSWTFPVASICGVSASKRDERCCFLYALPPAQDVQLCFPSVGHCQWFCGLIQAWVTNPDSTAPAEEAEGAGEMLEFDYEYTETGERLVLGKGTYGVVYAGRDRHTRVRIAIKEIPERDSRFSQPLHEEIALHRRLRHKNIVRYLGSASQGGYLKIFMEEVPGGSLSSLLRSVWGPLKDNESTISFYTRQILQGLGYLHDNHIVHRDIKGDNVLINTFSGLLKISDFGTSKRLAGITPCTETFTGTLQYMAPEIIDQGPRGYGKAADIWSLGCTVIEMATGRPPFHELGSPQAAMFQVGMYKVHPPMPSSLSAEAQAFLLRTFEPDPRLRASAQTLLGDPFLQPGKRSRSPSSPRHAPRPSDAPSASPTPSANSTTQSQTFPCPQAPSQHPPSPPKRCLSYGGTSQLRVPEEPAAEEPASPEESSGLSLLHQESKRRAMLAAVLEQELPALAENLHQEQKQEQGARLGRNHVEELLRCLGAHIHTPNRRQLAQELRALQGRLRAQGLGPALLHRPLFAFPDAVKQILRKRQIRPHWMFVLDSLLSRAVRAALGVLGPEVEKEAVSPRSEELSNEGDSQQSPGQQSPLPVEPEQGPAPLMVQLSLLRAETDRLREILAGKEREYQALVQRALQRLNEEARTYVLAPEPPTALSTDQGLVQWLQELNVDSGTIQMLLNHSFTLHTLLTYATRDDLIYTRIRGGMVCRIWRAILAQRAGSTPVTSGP

[5] = target: Bromodomain-containing protein 4 (Homo sapiens, UniProt O60885); test: Selectivity interaction (AlphaScreen binding assay) EUB0001632a BRD4

Sequence of Vascular endothelial growth factor receptor 3 (P35916 whole entry): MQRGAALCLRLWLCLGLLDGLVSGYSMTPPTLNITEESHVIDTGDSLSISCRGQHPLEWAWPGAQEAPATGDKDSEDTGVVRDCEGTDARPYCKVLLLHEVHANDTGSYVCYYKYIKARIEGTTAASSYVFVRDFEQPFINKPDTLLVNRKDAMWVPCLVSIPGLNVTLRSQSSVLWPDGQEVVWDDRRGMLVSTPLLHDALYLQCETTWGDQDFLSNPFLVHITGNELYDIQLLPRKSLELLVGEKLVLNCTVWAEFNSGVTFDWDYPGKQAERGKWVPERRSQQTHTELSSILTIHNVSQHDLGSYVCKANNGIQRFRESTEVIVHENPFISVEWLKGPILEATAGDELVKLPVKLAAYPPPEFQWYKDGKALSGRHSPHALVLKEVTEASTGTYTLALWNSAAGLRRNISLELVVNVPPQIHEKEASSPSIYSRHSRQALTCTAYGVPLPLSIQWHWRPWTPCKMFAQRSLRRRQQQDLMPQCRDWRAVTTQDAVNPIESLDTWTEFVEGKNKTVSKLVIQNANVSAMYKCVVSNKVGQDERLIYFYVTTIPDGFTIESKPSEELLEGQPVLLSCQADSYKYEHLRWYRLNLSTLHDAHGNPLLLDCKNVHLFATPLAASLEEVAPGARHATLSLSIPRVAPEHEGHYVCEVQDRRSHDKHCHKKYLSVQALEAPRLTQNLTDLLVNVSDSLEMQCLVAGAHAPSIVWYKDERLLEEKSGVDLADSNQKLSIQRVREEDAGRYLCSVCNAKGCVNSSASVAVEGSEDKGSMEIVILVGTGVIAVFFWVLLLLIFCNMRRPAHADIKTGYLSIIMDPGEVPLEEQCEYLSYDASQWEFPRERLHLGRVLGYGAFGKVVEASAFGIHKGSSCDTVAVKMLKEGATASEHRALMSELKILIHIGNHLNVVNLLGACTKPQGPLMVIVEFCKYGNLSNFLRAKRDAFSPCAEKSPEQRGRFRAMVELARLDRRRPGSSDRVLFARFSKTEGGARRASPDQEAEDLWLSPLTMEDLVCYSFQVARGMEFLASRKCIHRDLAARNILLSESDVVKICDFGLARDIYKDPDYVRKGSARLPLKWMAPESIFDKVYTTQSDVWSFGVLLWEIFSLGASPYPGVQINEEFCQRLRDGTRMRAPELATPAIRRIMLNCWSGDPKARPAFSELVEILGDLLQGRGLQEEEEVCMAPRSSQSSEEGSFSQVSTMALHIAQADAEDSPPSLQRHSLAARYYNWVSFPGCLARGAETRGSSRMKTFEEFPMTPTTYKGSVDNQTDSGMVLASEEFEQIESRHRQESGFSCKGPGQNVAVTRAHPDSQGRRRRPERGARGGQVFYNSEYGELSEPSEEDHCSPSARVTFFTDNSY
Sequence of Tyrosine-protein kinase ABL1 (Homo sapiens), P00519 [E255K] (P00519 whole entry E255K): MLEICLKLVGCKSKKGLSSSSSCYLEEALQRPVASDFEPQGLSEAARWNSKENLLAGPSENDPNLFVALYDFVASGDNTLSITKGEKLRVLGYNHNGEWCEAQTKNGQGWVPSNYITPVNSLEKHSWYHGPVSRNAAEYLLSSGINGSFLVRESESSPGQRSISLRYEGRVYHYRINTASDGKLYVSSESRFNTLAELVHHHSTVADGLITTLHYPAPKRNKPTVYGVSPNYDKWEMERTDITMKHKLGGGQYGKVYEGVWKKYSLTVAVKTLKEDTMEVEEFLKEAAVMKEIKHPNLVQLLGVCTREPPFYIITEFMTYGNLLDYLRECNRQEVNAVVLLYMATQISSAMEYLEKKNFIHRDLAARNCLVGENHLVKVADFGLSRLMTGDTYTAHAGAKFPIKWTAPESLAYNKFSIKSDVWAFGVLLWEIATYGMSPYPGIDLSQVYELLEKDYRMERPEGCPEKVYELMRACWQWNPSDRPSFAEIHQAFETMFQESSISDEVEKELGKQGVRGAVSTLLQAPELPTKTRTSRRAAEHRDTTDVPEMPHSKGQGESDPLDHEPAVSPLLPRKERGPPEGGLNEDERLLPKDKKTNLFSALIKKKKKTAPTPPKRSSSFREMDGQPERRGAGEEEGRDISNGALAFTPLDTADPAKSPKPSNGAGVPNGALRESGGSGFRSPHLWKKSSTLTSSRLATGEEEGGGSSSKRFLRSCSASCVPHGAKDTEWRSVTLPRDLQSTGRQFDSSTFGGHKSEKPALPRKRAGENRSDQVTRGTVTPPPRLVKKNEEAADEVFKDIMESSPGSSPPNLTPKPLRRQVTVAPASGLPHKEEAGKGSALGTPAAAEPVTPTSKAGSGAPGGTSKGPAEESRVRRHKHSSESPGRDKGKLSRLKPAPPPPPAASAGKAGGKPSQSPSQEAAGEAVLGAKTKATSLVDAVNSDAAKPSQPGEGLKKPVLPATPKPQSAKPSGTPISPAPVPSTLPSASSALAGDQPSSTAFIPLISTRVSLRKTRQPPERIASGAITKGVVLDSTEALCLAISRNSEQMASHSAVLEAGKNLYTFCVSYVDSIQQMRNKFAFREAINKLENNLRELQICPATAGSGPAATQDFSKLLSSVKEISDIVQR

## COc1cc(Nc2nc(C)cc(-c3cnn4nc(OC)ccc34)n2)cc(C(F)(F)F)c1
[1]
  % of control: 92%

## Nc1cnc(N2CCc3cc(S(=O)(=O)Nc4c(F)cc(Cl)cc4F)cc(N4CCCC4=O)c32)nc1 [TP-020n]
[2]
  % of control: 86%

## CCN(CC)CCCCNc1ncc2cc(-c3cc(OC)cc(OC)c3)c(NC(=O)NC(C)(C)C)nc2n1
[3]
  % of control: 100%

## CC[C@@H]1[C@H](F)C(=O)N[C@@H]1COc1nccc2cc(C(N)=O)c(OC)cc12 [ZIMLOVISERTIB]
[4]; at 0.01 µM
  % of inhibition: -12.1%
[4]; at 0.04 µM
  % of inhibition: -3.2%
[4]; at 0.2 µM
  % of inhibition: 0%
[4]; at 1 µM
  % of inhibition: -6.5%
[4]; at 5 µM
  % of inhibition: -21.9%

## Cn1cc(-n2cnc3c(NCc4nc5cc(Cl)c(Cl)cc5[nH]4)nc(N4CCOCC4)nc32)cn1
[5]
  IC50: > 10 µM
